Measurements reported in ChEMBL document CHEMBL4251708, “Synthesis and Biological Screening of Pyrano[3,2-c]quinoline Analogues as Anti-inflammatory and Anticancer Agents” (ACS Med Chem Lett, 2018).
Activity calls are given as the source filed them. The rule behind the calls is not given here.

How the values were obtained:
ACHN [1] = experiment: Antiproliferative activity against human ACHN cells at 700 nM after 48 hrs by propidium iodide staining based fluorometry relative to control; format: functional
PANC-1 [2] = experiment: Antiproliferative activity against human PANC1 cells at 700 nM after 48 hrs by propidium iodide staining based fluorometry relative to control; format: functional
HCT-116 [3] = experiment: Antiproliferative activity against human HCT116 cells at 700 nM after 48 hrs by propidium iodide staining based fluorometry relative to control; format: functional
NCI-H460 [4] = experiment: Antiproliferative activity against human H460 cells at 700 nM after 48 hrs by propidium iodide staining based fluorometry relative to control; format: functional
Calu-1 [5] = experiment: Antiproliferative activity against human Calu1 cells at 700 nM after 48 hrs by propidium iodide staining based fluorometry relative to control; format: functional
ACHN [6] = experiment: Antiproliferative activity against human ACHN cells at 500 nM after 48 hrs by propidium iodide staining based fluorometry relative to control; format: functional
PANC-1 [7] = experiment: Antiproliferative activity against human PANC1 cells at 500 nM after 48 hrs by propidium iodide staining based fluorometry relative to control; format: functional
HCT-116 [8] = experiment: Antiproliferative activity against human HCT116 cells at 500 nM after 48 hrs by propidium iodide staining based fluorometry relative to control; format: functional
NCI-H460 [9] = experiment: Antiproliferative activity against human H460 cells at 500 nM after 48 hrs by propidium iodide staining based fluorometry relative to control; format: functional
Calu-1 [10] = experiment: Antiproliferative activity against human Calu1 cells at 500 nM after 48 hrs by propidium iodide staining based fluorometry relative to control; format: functional
THP-1 [11] = experiment: Antiinflammatory activity in PMA-differentiated human THP1 cells assessed as inhibition of LPS-induced TNF-alpha production at 1 uM after 24 hrs by ELISA relative to control; format: functional; conditions: THP-1, 24 h
THP-1 [12] = experiment: Antiinflammatory activity in PMA-differentiated human THP1 cells assessed as inhibition of LPS-induced TNF-alpha production at 10 uM after 24 hrs by ELISA relative to control; format: functional; conditions: THP-1, 24 h
THP-1 [13] = experiment: Antiinflammatory activity in PMA-differentiated human THP1 cells assessed as inhibition of LPS-induced IL-6 production at 1 uM after 24 hrs by ELISA relative to control; format: functional; conditions: THP-1, 24 h
THP-1 [14] = experiment: Antiinflammatory activity in PMA-differentiated human THP1 cells assessed as inhibition of LPS-induced IL-6 production at 10 uM after 24 hrs by ELISA relative to control; format: functional; conditions: THP-1, 24 h
ACHN [15] = experiment: Antiproliferative activity against human ACHN cells at 10 uM relative to control; format: functional
MIA PaCa-2 = experiment: Antiproliferative activity against human MIAPaCa2 cells at 10 uM relative to control; format: functional
THP-1 [16] = experiment: Antiinflammatory activity in PMA-differentiated human THP1 cells assessed as inhibition of LPS-induced TNF-alpha production after 24 hrs by ELISA; format: functional, cell-based; conditions: THP-1, 24 h
THP-1 [17] = experiment: Antiinflammatory activity in PMA-differentiated human THP1 cells assessed as inhibition of LPS-induced IL-6 production after 24 hrs by ELISA; format: functional, cell-based; conditions: THP-1, 24 h
THP-1 [18] = experiment: Cytotoxicity against PMA-differentiated human THP1 cells assessed as reduction in cell viability after 4.5 hrs by MTS assay; format: cell-based; conditions: THP-1, 4.5 h
ACHN [19] = experiment: Antiproliferative activity against human ACHN cells after 48 hrs by propidium iodide staining based fluorometry; format: functional, cell-based
PANC-1 [20] = experiment: Antiproliferative activity against human PANC1 cells after 48 hrs by propidium iodide staining based fluorometry; format: functional, cell-based; conditions: PANC-1, 48 h
HCT-116 [21] = experiment: Antiproliferative activity against human HCT116 cells after 48 hrs by propidium iodide staining based fluorometry; format: functional, cell-based; conditions: HCT-116, 48 h
NCI-H460 [22] = experiment: Antiproliferative activity against human H460 cells after 48 hrs by propidium iodide staining based fluorometry; format: functional, cell-based; conditions: NCI-H460, 48 h
Calu-1 [23] = experiment: Antiproliferative activity against human Calu1 cells after 48 hrs by propidium iodide staining based fluorometry; format: functional, cell-based; conditions: Calu-1, 48 h
PBMC = experiment: Antiinflammatory activity in human PBMC assessed as inhibition of LPS-induced TNF-alpha production incubated for 30 mins followed by LPS addition measured after 4.5 hrs by ELISA; format: functional, cell-based
ACHN (Homo sapiens) [24] = experiment: Antiproliferative activity against human ACHN cells at 1 uM relative to control
[25] = test system: MDA-MB-231 (Homo sapiens); experiment: Antiproliferative activity against human MDA-MB-231 cells at 1 uM relative to control; conditions: mda-mb-231, 1 µM
[26] = test system: MIA PaCa-2 (Homo sapiens); experiment: Antiproliferative activity against human MIA PaCa-2 cells at 1 uM relative to control
THP-1 (Homo sapiens) [27] = experiment: Antiinflammatory activity in human THP1 cells assessed as inhibition of IL-6 production at 10 uM relative to control; set-up: scale not given: the % may be the effect or the level left
THP-1 (Homo sapiens) [28] = experiment: Antiinflammatory activity in human THP1 cells assessed as inhibition of TNF-alpha production at 10 uM relative to control; set-up: scale not given: the % may be the effect or the level left
ACHN (Homo sapiens) [29] = experiment: Antiproliferative activity against human ACHN cells at 10 uM relative to control
A-549 (Homo sapiens) = experiment: Antiproliferative activity against human A-549 cells at 10 uM relative to control
[30] = test system: MDA-MB-231 (Homo sapiens); experiment: Antiproliferative activity against human MDA-MB-231 cells at 10 uM relative to control

IC50 (THP-1 [16]) | IC50 (THP-1 [17]) | IC50 (ACHN [19]) | IC50 (PANC-1 [20]) | IC50 (HCT-116 [21]) | IC50 (NCI-H460 [22]) | IC50 (Calu-1 [23]) | SMILES | inhibition at 1 µM (THP-1 [11]) | inhibition at 10 µM (THP-1 [12]) | inhibition at 1 µM (THP-1 [13]) | inhibition at 10 µM (THP-1 [14]) | Activity (MIA PaCa-2) | IC50 (THP-1 [18]) | Activity (ACHN (Homo sapiens) [24]) | Activity [25] | Activity [26] | Activity (THP-1 (Homo sapiens) [27]) | Activity (THP-1 (Homo sapiens) [28]) | Activity (ACHN (Homo sapiens) [29]) | Activity (A-549 (Homo sapiens)) | other results
– | – | – | – | – | – | – | CN1CC[C@H](c2c(O)cc(O)c3c(=O)cc(-c4ccccc4Cl)oc23)[C@H](O)C1 [ALVOCIDIB] | – | – | – | – | – | – | – | – | – | – | – | – | – | Activity (ACHN [1]): 71%; Activity (PANC-1 [2]): 78%; Activity (HCT-116 [3]): 71%; Activity (NCI-H460 [4]): 88%; Activity (Calu-1 [5]): 74%
– | – | – | – | – | – | – | Nc1ccn([C@@H]2O[C@H](CO)[C@@H](O)C2(F)F)c(=O)n1 [GEMCITABINE] | – | – | – | – | – | – | – | – | – | – | – | – | – | Activity (ACHN [6]): 73%; Activity (PANC-1 [7]): 74%; Activity (HCT-116 [8]): 73%; Activity (NCI-H460 [9]): 71%; Activity (Calu-1 [10]): 79%
4.9 µM | < 0.03 µM | 2.8 µM | 1.5 µM | 1 µM | 1.3 µM | 1.2 µM | Cn1c(=O)c2c(c3ccccc31)OC(N)=C(C#N)C2c1ccccc1 (centres undefined) | 0% | 0% | 0% | 66% | 41% | > 10 µM | 61% | 0% | 45% | 66% | 0% | – | – | Activity (ACHN [15]): 82%; inhibition (PBMC): inactive
0.3 µM | 0.25 µM | 1.6 µM | 2.5 µM | 6.6 µM | 1.9 µM | 1.1 µM | Cn1c(=O)c2c(c3ccccc31)OC(N)=C(C#N)C2c1cccc([N+](=O)[O-])c1 (centres undefined) | 11% | 0% | 0% | 79% | 70% | > 10 µM | 79% | 53% | 65% | 79% | 43% | 83% | 71% | IC50 (PBMC): 0.2 µM; inhibition (PBMC): Dose-dependent effect; Activity [30]: 65%
– | – | – | – | – | – | – | Cn1c(=O)c2c(c3ccccc31)OC(N)=C(C#N)C2c1ccccc1[N+](=O)[O-] (centres undefined) | 0% | 0% | 0% | 78% | 51% | – | 49% | 0% | 35% | 78% | 36% | 68% | 36% | –
0.5 µM | 0.08 µM | 0.9 µM | 0.8 µM | 0.9 µM | 0.8 µM | 0.8 µM | Cn1c(=O)c2c(c3ccccc31)OC(N)=C(C#N)C2c1cccc(Br)c1 (centres undefined) | 2% | 0% | 0% | 82% | 70% | 10 µM | 73% | 45% | 61% | 82% | 38% | 75% | 78% | IC50 (PBMC): 0.5 µM; Activity [30]: 54%
– | – | – | – | – | – | – | Cn1c(=O)c2c(c3ccccc31)OC(N)=C(C#N)C2c1ccc([N+](=O)[O-])cc1 (centres undefined) | 0% | 0% | 0% | 0% | 64% | – | 9% | 0% | 15% | 0% | 27% | 75% | 77% | –
